Where two headings read alike, the source gives them in different places.
How the values were obtained:
AKT1 = target: T1, AKT1 (Homo sapiens, UniProt P31749); experiment: AKT1 In Vitro Enzyme Assay (Transcreener Kinase ADP-FP); assay type: biochemical; conditions: 20 micromolar ATP; read-out: IC50 against AKT1
T1 construct: His tag; host or cells: insect cells
Description: Compound IC50 values against AKT1 target are determined using the AKT1 Transcreener™ Kinase ADP-FP Assay. This assay assesses the activity of AKT1 in the presence of compound inhibitors by measuring the concentration of ADP formed in a kinase reaction. The kinase reactions (25 μL reaction volumes) are performed in 96-well half-area black polystyrene plates. ATP is added to start the reactions. Final reaction conditions are 56 millimolar HEPES pH 7.4, 0.008% TRITON™ X-100, 5 millimolar magnesium chloride, 30 micromolar Crosstide peptide, 20 micromolar ATP, hAKT1 Human Recombiant, V-AKT Murine Thymoma Viral Oncogene Homolog 1, histidine-tagged, expressed in insect cells, 4% DMSO and serial dilutions of compound (diluted 1:3 from 20,000 to 1 nanomolar). […] Quenched reactions are incubated for 4-16 hours, and then read in a Tecan Ultra Evolution plate reader in Fluorescence Polarization mode using polarizing filters of Ex612nm and Em633nm wavelength. […] The IC50 value for each compound is derived using percent inhibition data which is calculated using the micromolar ADP reaction data relative to on-plate controls (active enzyme versus 100 millimolar inhibited enzyme controls). […]

[1] = system: phosphorylated GSK3β serine 9 (pGSK3β); experiment: AlphaScreen SureFire detection of pGSK3β in U87MG cells; assay type: cell-based; conditions: Homo sapiens, U-87 MG, 1 hour
Description: The effect of compounds on the formation of endogenous phosphorylated S6 ribosomal protein serine 240/244 (pS6) and phosphorylated GSK3β serine 9 (pGSK3β) are measured using the AlphaScreen SureFire® for either pS6 (TGR Biosciences, TGRS6P2S10K) or pGSK3β(TGRGBS10K). This is a homogeneous assay format using immuno-sandwich capture of the phosphorylated analyte followed by detection using antibody-coated Alphascreen beads to generate an amplified signal.
U87MG cells are maintained in U87MG growth medium consisting of DMEM supplemented with 10% Fetal bovine serum (FBS), 1% Nonessential amino acids and 1% sodium pyruvate. For the assay, cells are harvested by standard procedures and then counted using Vi-Cell. Cells (50,000/well) are plated in 100 μL of U87MG growth medium into Costar #3596 96 well plates. […]
On the day of the assay, cells are treated with 20 μL/well compound diluted in media containing 6% DMSO. […] The plate is sealed with foil, incubated at RT for 4 hours with gentle shaking and then read on Perkin Elmer EnVision equipped with a TurboModule using standard AlphaScreen® settings (Ex680nm and Em520-620nm). The percent inhibition determined from controls on each plate and ten-point compound concentration data are then fit to a four-parameter logistic equation using ACTIVITYBASE 4.0 (Assay Guidance Manual Version 5.0, 2008, Eli Lilly and Company and NIH Chemical Genomics Center).

[2] = system: Phosphorylation of GSK3β(S9); experiment: p70 S6K/AKT In Vivo Target Inhibition, U87MG xenograft, pGSK3β; set-up: species or system athymic nude mice; conditions: Mus musculus, U-87 MG, IV Dose 12.5 mpk, U87MG tumors, read-out: p(S9)GSK 3β - % inhibition
Description: U87MG human glioblastoma cells (5×106) are subcutaneously implanted into the flank of athymic nude mice in 0.2 mL of matrigel. Two weeks post-implantation, mice are dosed orally or parenterally according to a time course, single dose/single time point, or dose response protocol for the determination of TMED50 (threshold minimum effective dose). Tumors are flash frozen at harvest and blood is collected for the determination of parent compound plasma exposure and the calculation of TMEC50 (threshold minimum effective concentration) in the case of dose response studies. Tumors or tissues are pulverized in liquid N2 and lysed in 400 μL of XY Lysis Buffer (10 μg/mL Leupeptin, 10 μg/mL Trypsin-Chymotrypsin Inhibitor, 10 μg/mL Tosyl phenyl-alanyl chloromethyl ketone, 10 μg/mL Aprotinin, 60 mM Beta-Glycerol Phosphate, 1% Triton X100, 25 mM Tris pH 7.5, 2.5 mM Pyrophosphate, 150 mM NaCl, 2 mM p-tosyl-L-arginine methyl ester, 15 mM para-nitrophenyl phosphate, 5 mM Benzamidine, 1 mM Na Vanadate, 10 mM NaF, 50 μg/mL phenyl-methane sulfonyl fluoride, 1 mM 1,4-Dithiothreitol (DTT), 15 mM EDTA pH 8.0, 5 mM EGTA pH 8.0, 1 μM Microcystin, 1 μM Okadaic Acid, and 1 Roche Complete protease inhibitor mini-tablet per 10 mL) using Lysing Matrix D tubes (MP Biomedicals, Solon, Ohio, cat#6913-500) and a BIO101 Thermo Savant Fast Prep FP12. Lysates are aliquoted and either assayed immediately or stored at −80° C. for later testing. In Vivo Target Inhibition of p70 S6K and AKT is measured utilizing Meso Scale Discovery (Gaithersburg, Md.) ELISA technology to assess effects on phosphorylation of the serine 240/244 site of the downstream effector S6RP. Phosphorylation of p70 S6K(T389), AKT(5473) and GSK3β(S9) is also assessed using this technology in a multiplex format. In summary, 20 μg of lysate is added to carbon electrode containing 96-well plates pre-spotted with the appropriate capture antibodies. The protein of interest is probed using a ruthenium labeled detection antibody. Upon the passage of current over the electrode in the presence of read buffer containing the co-reactant TPA, electro-chemiluminescence results in the generation of light which is quantified and recorded using the MSD Sector 6000 instrument. For each study, percent inhibitions are calculated relative to the vehicle control group and ANOVA analysis is performed using the JMP software package for the determination of statistical significance.

T1 sequence (P31749 whole entry): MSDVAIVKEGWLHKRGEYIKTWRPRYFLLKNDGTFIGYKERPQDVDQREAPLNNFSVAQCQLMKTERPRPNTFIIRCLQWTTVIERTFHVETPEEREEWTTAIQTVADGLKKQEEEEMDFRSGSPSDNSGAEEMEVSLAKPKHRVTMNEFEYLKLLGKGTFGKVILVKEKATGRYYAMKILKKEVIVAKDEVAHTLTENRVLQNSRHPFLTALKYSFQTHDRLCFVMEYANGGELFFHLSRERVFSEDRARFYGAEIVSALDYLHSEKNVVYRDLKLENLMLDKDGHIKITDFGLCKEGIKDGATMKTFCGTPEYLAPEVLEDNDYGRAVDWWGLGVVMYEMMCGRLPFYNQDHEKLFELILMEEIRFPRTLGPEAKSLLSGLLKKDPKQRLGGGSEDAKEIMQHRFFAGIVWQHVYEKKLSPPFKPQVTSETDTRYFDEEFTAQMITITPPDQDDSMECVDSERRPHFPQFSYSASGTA

IC50 (AKT1): 6 nM
IC50 [1]: 331 nM
SMILES: CN(C)CCn1cc(-c2ccc(F)c(C(F)(F)F)c2)nc1C1CCN(c2ncnc3c2C(C)(C)C(=O)N3)CC1 [Example 31]
inhibition at 12.5 mg/kg ([2]; 1 hr post IV dose): 48.4%
inhibition at 12.5 mg/kg ([2]; 2 hr post IV dose): 12.6%
inhibition at 12.5 mg/kg ([2]; 4 hr post IV dose): 20.5%
inhibition at 12.5 mg/kg ([2]; 6 hr post IV dose): 51.7%
inhibition at 12.5 mg/kg ([2]; 8 hr post IV dose): 20.1%
inhibition at 12.5 mg/kg ([2]; 24 hr post IV dose): 6%
